Experimental data: patent publication US20140303164A1, “THERAPEUTIC COMPOUNDS” (Gilead Sciences, Inc., priority 2013, published 2014)

Legend:
[1] = Test B: Cytotoxicity Assay; format: cell-based; conditions: human, uninfected MT-4 cells, same protocol as Test A
Method: (§1) MT-4 cells were next mixed with HIV-IIIb at an m.o.i of 0.003 for 1 hour, after which time 35 μL of virus/cell mixture (2000 cells) was immediately added to each well containing 40 μL of diluted compound. The plates were then incubated at 37° C. for 5 days. […] Cell lysis was carried out by incubating at room temperature for 10 min and then chemiluminescence was read.
Test B: Cytotoxicity Assay
Compound cytotoxicity and the corresponding CC50 values was determined using the same protocol as described in the antiviral assay (Test A) except that uninfected cells were used.

HIV-IIIb = test: Test A: Antiviral Assay in MT4 Cells; format: cell-based, HIV-1; conditions: Human immunodeficiency virus 1, IIIB, MT4, 120 h; for inhibition at 0.2 µM: read-out: % inhibition at 0.2 μM; for inhibition at 2 µM: read-out: % inhibition at 2 μM
Method: Test A: Antiviral Assay in MT4 Cells
as §1

Row | Compound | CC50 at 5 days [1] | inhibition at 0.2 µM (HIV-IIIb) | inhibition at 2 µM (HIV-IIIb)
1 | CNC(=O)c1nn(CC(=O)N[C@@H](Cc2cc(F)cc(F)c2)c2nc(C#CC(C)(C)O)ccc2-c2ccc(Cl)c3c(NS(C)(=O)=O)nn(C)c23)c2c1[C@H]1C[C@H]1C2(F)F [Compound 165, (3bS,4aR)-1-(2-(((S)-1-(3-(4-chloro-1-methyl-3-(methylsulfonamido)-1H-indazol-7-yl)-6-(3-hydroxy-3-methylbut-1-yn-1-yl)pyridin-2-yl)-2-(3,5-difluorophenyl)ethyl)amino)-2-oxoethyl)-5,5-difluoro-N-methyl-3b,4,4a,5-tetrahydro-1H-cyclopropa[3,4]cyclopenta[1,2-c]pyrazole-3-carboxamide] | 5.46 µM | 72% | 72%
2 | Cc1ccc(C)c2c1NC(=O)C2CC(=O)N[C@@H](Cc1cc(F)cc(F)c1)c1nc(C#CC(C)(C)O)ccc1-c1ccc(Cl)c2c(NS(C)(=O)=O)nn(C)c12 (stereo partly drawn) [Compound 196, N—((S)-1-(3-(4-chloro-1-methyl-3-(methylsulfonamido)-1H-indazol-7-yl)-6-(3-hydroxy-3-methylbut-1-yn-1-yl)pyridin-2-yl)-2-(3,5-difluorophenyl)ethyl)-2-(4,7-dimethyl-2-oxoindolin-3-yl)acetamide] | 10.8 µM | 76% | 92%
3 | Cc1c(-c2ccc(C#CC(C)(C)O)nc2[C@H](Cc2cc(F)cc(F)c2)NC(=O)Cn2nc(C(F)(F)F)c3c2C(F)(F)[C@@H]2C[C@H]32)ccc2n[nH]c(=O)n12 [Compound 27G, 2-((3bS,4aR)-5,5-difluoro-3-(trifluoromethyl)-3b,4,4a,5-tetrahydro-1H-cyclopropa[3,4]cyclopenta[1,2-c]pyrazol-1-yl)-N—((S)-2-(3,5-difluorophenyl)-1-(6-(3-hydroxy-3-methylbut-1-yn-1-yl)-3-(5-methyl-3-oxo-2,3-dihydro-[1,2,4]triazolo[4,3-a]pyridin-6-yl)pyridin-2-yl)ethyl)acetamide] | 10.4 µM | 89% | 89%
4 | Cn1nc(NS(C)(=O)=O)c2c(Cl)ccc(-c3cc(-c4ccccc4Cl)cnc3[C@H](Cc3cc(F)cc(F)c3)NC(=O)Cn3nc(C(F)F)c4c3C(F)(F)[C@@H]3C[C@H]43)c21 [Compound 181C, N—((S)-1-(3-(4-chloro-1-methyl-3-(methylsulfonamido)-1H-indazol-7-yl)-5-(2-chlorophenyl)pyridin-2-yl)-2-(3,5-difluorophenyl)ethyl)-2-((3b-S,4aR)-3-(difluoromethyl)-5,5-difluoro-3b,4,4a,5-tetrahydro-1H-cyclopropa[3,4]cyclopenta[1,2-c]pyrazol-1-yl)acetamide] | > 53.2 µM | 100% | 100%
5 | Cn1nc(NC(=O)C(C)(C)O)c2c(Cl)ccc(-c3ccc(C#CC(C)(C)O)nc3[C@H](Cc3cc(F)cc(F)c3)NC(=O)Cn3nc(C(F)F)c4c3C(F)(F)[C@@H]3C[C@H]43)c21 [Compound 89, N-(4-chloro-7-(2-((S)-1-(2-((3b-S,4aR)-3-(difluoromethyl)-5,5-difluoro-3b,4,4a,5-tetrahydro-1H-cyclopropa[3,4]cyclopenta[1,2-c]pyrazol-1-yl)acetamido)-2-(3,5-difluorophenyl)ethyl)-6-(3-hydroxy-3-methylbut-1-yn-1-yl)pyridin-3-yl)-1-methyl-1H-indazol-3-yl)-2-hydroxy-2-methylpropanamide] | 7.77 µM | 95% | 95%
6 | CN(C)C(=O)c1nn(CC(=O)N[C@@H](Cc2cc(F)cc(F)c2)c2nc(C#CC(C)(C)O)ccc2-c2ccc(Cl)c3c(NS(C)(=O)=O)nn(C)c23)c2c1[C@H]1C[C@H]1C2(F)F [Compound 164, (3bS,4aR)-1-(2-(((S)-1-(3-(4-chloro-1-methyl-3-(methylsulfonamido)-1H-indazol-7-yl)-6-(3-hydroxy-3-methylbut-1-yn-1-yl)pyridin-2-yl)-2-(3,5-difluorophenyl)ethyl)amino)-2-oxoethyl)-5,5-difluoro-N,N-dimethyl-3b,4,4a,5-tetrahydro-1H-cyclopropa[3,4]cyclopenta[1,2-c]pyrazole-3-carboxamide] | 40.5 µM | 96% | 97%
7 | Cc1nc(NS(C)(=O)=O)c2cccc(-c3ccc(C#CC(C)(C)O)nc3[C@H](Cc3cc(F)cc(F)c3)NC(=O)Cn3nc(C(F)(F)F)c4c3C(F)(F)[C@@H]3C[C@H]43)n12 [Compound 121, 2-((3bS,4aR)-5,5-difluoro-3-(trifluoromethyl)-3b,4,4a,5-tetrahydro-1H-cyclopropa[3,4]cyclopenta[1,2-c]pyrazol-1-yl)-N—((S)-2-(3,5-difluorophenyl)-1-(6-(3-hydroxy-3-methylbut-1-yn-1-yl)-3-(3-methyl-1-(methylsulfonamido)imidazo[1,5-a]pyridin-5-yl)pyridin-2-yl)ethyl)acetamide] | 9.18 µM | 46% | 98%
8 | C[C@@H](O)C#Cc1ccc(-c2ccc(Cl)c3c(NS(C)(=O)=O)nn(C)c23)c([C@H](Cc2cc(F)cc(F)c2)NC(=O)Cn2nc(C(F)F)c3c2C(F)(F)[C@@H]2C[C@H]32)n1 [Compound 143, N—((S)-1-(3-(4-chloro-1-methyl-3-(methylsulfonamido)-1H-indazol-7-yl)-6-((R)-3-hydroxybut-1-yn-1-yl)pyridin-2-yl)-2-(3,5-difluorophenyl)ethyl)-2-((3b-S,4aR)-3-(difluoromethyl)-5,5-difluoro-3b,4,4a,5-tetrahydro-1H-cyclopropa[3,4]cyclopenta[1,2-c]pyrazol-1-yl)acetamide] | 11.3 µM | 98% | 98%
9 | Cn1nc(NS(C)(=O)=O)c2c(Cl)ccc(-c3ccc(C#CC(O)(CF)CF)nc3[C@H](Cc3cc(F)cc(F)c3)NC(=O)Cn3nc(C(F)F)c4c3C(F)(F)[C@@H]3C[C@H]43)c21 [Compound 170, N—((S)-1-(3-(4-chloro-1-methyl-3-(methylsulfonamido)-1H-indazol-7-yl)-6-(4-fluoro-3-(fluoromethyl)-3-hydroxybut-1-yn-1-yl)pyridin-2-yl)-2-(3,5-difluorophenyl)ethyl)-2-((3b-S,4aR)-3-(difluoromethyl)-5,5-difluoro-3b,4,4a,5-tetrahydro-1H-cyclopropa[3,4]cyclopenta[1,2-c]pyrazol-1-yl)acetamide] | 17 µM | 88% | 88%
10 | CC(C)(O)C#Cc1ccc(-c2ccc(Cl)c(C(N)=O)c2)c([C@H](Cc2cc(F)cc(F)c2)NC(=O)Cn2nc(C(F)(F)F)c3c2C(F)(F)[C@@H]2C[C@H]32)n1 [Compound 80, 2-chloro-5-(2-((S)-1-(2-((3bS,4aR)-5,5-difluoro-3-(trifluoromethyl)-3b,4,4a,5-tetrahydro-1H-cyclopropa[3,4]cyclopenta[1,2-c]pyrazol-1-yl)acetamido)-2-(3,5-difluorophenyl)ethyl)-6-(3-hydroxy-3-methylbut-1-yn-1-yl)pyridin-3-yl)benzamide] | 8.58 µM | 96% | 100%
11 | CCC(O)(C#Cc1ccc(-c2cccc3c(NS(C)(=O)=O)nn(C)c23)c([C@H](Cc2cc(F)cc(F)c2)NC(=O)Cn2nc(C(F)(F)F)c3c2C(F)(F)[C@@H]2C[C@H]32)n1)CC [Compound 66, 2-((3bS,4aR)-5,5-difluoro-3-(trifluoromethyl)-3b,4,4a,5-tetrahydro-1H-cyclopropa[3,4]cyclopenta[1,2-c]pyrazol-1-yl)-N—((S)-2-(3,5-difluorophenyl)-1-(6-(3-ethyl-3-hydroxypent-1-yn-1-yl)-3-(1-methyl-3-(methylsulfonamido)-1H-indazol-7-yl)pyridin-2-yl)ethyl)acetamide] | 6.96 µM | 97% | 97%
12 | Cn1nc(NS(N)(=O)=O)c2cccc(-c3ccc(C#CC(C)(C)O)nc3[C@H](Cc3cc(F)cc(F)c3)NC(=O)Cn3nc(C(F)(F)F)c4c3C(F)(F)[C@@H]3C[C@H]43)c21 [Compound 44, 2-((3bS,4aR)-5,5-difluoro-3-(trifluoromethyl)-3b,4,4a,5-tetrahydro-1H-cyclopropa[3,4]cyclopenta[1,2-c]pyrazol-1-yl)-N—((S)-2-(3,5-difluorophenyl)-1-(6-(3-hydroxy-3-methylbut-1-yn-1-yl)-3-(1-methyl-3-(sulfamoylamino)-1H-indazol-7-yl)pyridin-2-yl)ethyl)acetamide] | 6.82 µM | 94% | 94%
13 | Cn1nc(N)c2cccc(-c3ccc(C#CC(C)(C)O)nc3[C@H](Cc3cc(F)cc(F)c3)NC(=O)Cn3nc(C(F)(F)F)c4c3C(F)(F)[C@@H]3C[C@H]43)c21 [Compound 25, N—((S)-1-(3-(3-amino-1-methyl-1H-indazol-7-yl)-6-(3-hydroxy-3-methylbut-1-yn-1-yl)pyridin-2-yl)-2-(3,5-difluorophenyl)ethyl)-2-((3b-S,4aR)-5,5-difluoro-3-(trifluoromethyl)-3b,4,4a,5-tetrahydro-1H-cyclopropa[3,4]cyclopenta[1,2-c]pyrazol-1-yl)acetamide] | 9.14 µM | 89% | 89%
14 | Cc1ccc(-c2ccc(C#CC(C)(C)O)nc2[C@H](Cc2cc(F)cc(F)c2)NC(=O)Cn2nc(C(F)F)c3c2C(F)(F)[C@@H]2C[C@H]32)c2c1c(N)nn2C [Compound 58G, N—((S)-1-(3-(3-amino-1,4-dimethyl-1H-indazol-7-yl)-6-(3-hydroxy-3-methylbut-1-yn-1-yl)pyridin-2-yl)-2-(3,5-difluorophenyl)ethyl)-2-((3b-S,4aR)-3-(difluoromethyl)-5,5-difluoro-3b,4,4a,5-tetrahydro-1H-cyclopropa[3,4]cyclopenta[1,2-c]pyrazol-1-yl)acetamide] | 8.44 µM | 95% | 95%
